# Data reported in US8455448B2, “Myostatin isoform” (Myostin Therapeutics Pty Ltd, priority 2004, dated 2013).
# “Also recorded” adds a separate entry of the source.
# Key:
# creatine kinase (CK) = assay: Creatine kinase (CK-NAC) assay of blood samples of AH130 tumour rats; format: in vivo, rat; conditions: 1 μg/g bodymass s.c. twice daily for 6 d, day 6, FIG. 19
# Protocol: The ascites hepatoma 130 (AH130) was obtained as a gift from Dr Vicki Baracos (University of Alberta, Edmonton, Alberta, Canada) and stored in cryovials in liquid nitrogen in a solution of 50% DMSO and 10% BSA. An aliquot was retrieved and thawed and 1 ml was injected i.p. into each of three donor rats and allowed to grow for seven days. The rats were killed by CO2 asphyxiation followed by cervical dislocation. The ascites was harvested and 100 μl was injected i.p. into each of 14 recipient male rats (280±6 g). An equal volume of saline was injected i.p. into seven control rats. Of the 14 rats inoculated with the AH130 tumour, seven were injected s.c. twice daily with roMSV47 at a dose of 1 μg/g body mass diluted in sterile saline to a volume of 1 ml. […] The volume of ascites in the peritoneal cavity was removed with a syringe and the volume recorded. Six muscles in the right hind limb (biceps femoris, gastrocnemius, soleus, plantaris, tibialis anterior and quadriceps femoris) were excised and their mass recorded.
# CK-NAC was assayed in a commercial kit (Randox laboratories Ltd, UK). Reaction volumes were scaled down proportionately so that the assays could be performed in 96-well microtitre plates with samples assayed in triplicate (CK-NAC) and read as a change in U/L per min as per manufacturer's instructions.
# [1] = test system: myostatin mRNA expression; assay: Myostatin mRNA expression in C2C12 murine myoblasts (real-time PCR); format: cell-based; conditions: 10 μg/ml, FIG. 14
# Protocol: C2C12 myoblasts were seeded in 10 cm diameter tissue culture plates (Nunc, Roskilde, Denmark) at a cell density of 3000 cells per cm^2 in 10 ml of Dulbecco's modified Eagle's medium (DMEM, Invitrogen, California) supplemented with foetal bovine serum (FBS, 10% v/v, Invitrogen), penicillin (1×10^5 IU/I, Sigma, St Louis, Mo., USA) and streptomycin (100 mg/l, Sigma) buffered with NaHCO3 containing phenol red (7.22 nmol/l) as a pH indicator, and incubated overnight at 37° C. with 5% CO2. For a set of eight plates (chronic treatment, designated “A”) the medium was replaced with the test medium: DMEM with 2.5% FBS supplemented with 0 or 10 μg/ml oMSV47 (n=4). The plates “A” were then incubated at 37° C. with 5% CO2 for 48 hours. […] RNA was re-suspended in diethyl pyrocarbonate-treated water and the total RNA concentration determined by measuring absorbance at 260 nm (Nanodrop Spectrophotometer, Delaware, USA). […] The following experimental run protocol was used: denaturation (95° C. for 5 min), amplification (95° C. for 5 sec, 62° C. for 10 sec, 72° C. for 20 sec, with a single fluorescence measurement, 50 cycles), melt curve (60-95° C. with a heating rate of 0.1° C. per sec with continuous fluorescence measurement) on a LightCycler 2.0 PCR machine (Roche Diagnostics). Arbitrary concentrations were calculated by the Lightcycler software using a standard curve (Roche Diagnostics).
substance,measurement,setting,value
"roMSV47: 47 amino acid C-terminal mature ovine MSV fragment (SEQ ID NO: 50), recombinant from E. coli (IIFLEVYIQFCSILGEAVFKRQSKSIHFCQNFKIIACLCNTAAFRMK; Ovis aries)",concentrations of creatine kinase (CK),creatine kinase (CK),partially restores concentrations of CK; also recorded: not as markedly reduced
same,expression of myostatin (real-time PCR),"[1]; acutely, 6 h from 48 to 54 h",suppresses the expression of myostatin
same,expression of myostatin (real-time PCR),"[1]; chronically, from seeding to 48 h",suppresses the expression of myostatin
